Legend:
U-937 = test: Cell cycle arrest in human U937 cells assessed as increase in accumulation in G2 phase incubated for 6 hrs by propidium iodide staining based flow cytometry; assay type: functional; conditions: U-937, 6 h
[1] = Inhibition of recombinant LFA1/ICAM1 (unknown origin) interaction in JY-8 cells expressing LFA1 incubated for 45 mins by fluorescence based assay; assay type: cell-based, Homo sapiens
Beta-secretase 1 = Beta-secretase 1 (Homo sapiens, UniProt P56817); test: Inhibition of recombinant human BACE 1 using Rh-EVNL-DAEFK-Quencher as substrate incubated for 60 mins by fluorescence based assay
[2] = biological target: Epidermal growth factor receptor (Homo sapiens, UniProt P00533); test: Inhibition of EGFR (unknown origin)
[3] = biological target: Vascular endothelial growth factor receptor 2 (Homo sapiens, UniProt P35968); test: Inhibition of VEGFR (unknown origin)
[4] = Antioxidant activity assessed as DPPH free radical scavenging activity by spectrophotometry; assay type: functional
MCF7 = test: Antiproliferative activity against human MCF7 cells assessed as reduction in cell viability incubated for 48 hrs by MTT assay; assay type: functional, cell-based; conditions: MCF7, 48 h
DU-145 = test: Antiproliferative activity against human DU145 cells assessed as reduction in cell viability incubated for 48 hrs by MTT assay; assay type: functional, cell-based; conditions: DU-145, 48 h
HeLa S3 = test: Antiproliferative activity against human HeLaS3 cells assessed as reduction in cell viability incubated for 72 hrs by cell counter method; assay type: functional, cell-based; conditions: HeLa S3, 72 h
P-selectin = biological target: T1, P-selectin (Homo sapiens, UniProt P16109); test: Inhibition of P-selectin (unknown origin) incubated for 30 mins by ELISA
T1 sequence (P16109 whole entry): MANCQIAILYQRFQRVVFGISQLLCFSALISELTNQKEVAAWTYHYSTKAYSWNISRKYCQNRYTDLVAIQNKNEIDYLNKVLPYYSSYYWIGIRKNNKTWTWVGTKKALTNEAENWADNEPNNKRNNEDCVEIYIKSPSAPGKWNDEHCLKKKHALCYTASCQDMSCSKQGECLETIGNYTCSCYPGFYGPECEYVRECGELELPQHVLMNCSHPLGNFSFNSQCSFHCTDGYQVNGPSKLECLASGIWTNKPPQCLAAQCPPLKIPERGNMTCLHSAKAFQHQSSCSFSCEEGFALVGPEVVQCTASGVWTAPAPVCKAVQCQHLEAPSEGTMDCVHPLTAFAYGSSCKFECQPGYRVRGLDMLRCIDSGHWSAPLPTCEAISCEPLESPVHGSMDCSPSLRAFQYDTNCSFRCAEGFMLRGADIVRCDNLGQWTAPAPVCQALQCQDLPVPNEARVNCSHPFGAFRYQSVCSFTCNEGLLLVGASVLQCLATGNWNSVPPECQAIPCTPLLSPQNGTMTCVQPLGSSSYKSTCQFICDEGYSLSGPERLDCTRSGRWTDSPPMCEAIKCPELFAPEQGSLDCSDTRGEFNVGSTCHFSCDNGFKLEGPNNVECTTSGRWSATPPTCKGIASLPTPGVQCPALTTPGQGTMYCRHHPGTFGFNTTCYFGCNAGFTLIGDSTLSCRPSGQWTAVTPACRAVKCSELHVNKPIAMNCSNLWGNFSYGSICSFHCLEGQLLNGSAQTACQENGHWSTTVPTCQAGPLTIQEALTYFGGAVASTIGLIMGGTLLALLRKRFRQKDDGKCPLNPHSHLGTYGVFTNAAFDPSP

[5] = Inhibition of recombinant LFA1/ICAM1 (unknown origin) interaction incubated for 1 hr by time resolved fluorimetry; set-up: species or system Homo sapiens
B2 bradykinin receptor = biological target: T2, B2 bradykinin receptor (Cavia porcellus, UniProt O70526); test: Displacement of [3H]BK from Bradykinin B2 Receptor in guinea pig ileum by liquid scintillation counter; assay type: tissue-based
T2 sequence (O70526 whole entry): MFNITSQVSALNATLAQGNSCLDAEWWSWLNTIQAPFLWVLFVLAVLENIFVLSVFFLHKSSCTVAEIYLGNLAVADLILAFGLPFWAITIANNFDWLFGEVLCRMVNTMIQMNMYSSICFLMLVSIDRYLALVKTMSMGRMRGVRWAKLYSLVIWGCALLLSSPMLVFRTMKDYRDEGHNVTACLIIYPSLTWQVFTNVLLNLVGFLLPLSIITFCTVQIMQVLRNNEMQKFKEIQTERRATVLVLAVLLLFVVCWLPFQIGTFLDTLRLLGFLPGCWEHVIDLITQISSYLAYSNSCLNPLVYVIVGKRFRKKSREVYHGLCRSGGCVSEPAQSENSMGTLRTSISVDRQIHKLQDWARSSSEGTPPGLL

[6] = Inhibition of LFA1/ICAM1 (unknown origin) interaction; set-up: species or system Homo sapiens
P388 = test: Antiproliferative activity against mouse P388 cells assessed as reduction in cell viability by MTT assay; assay type: functional, cell-based
HT-29 = test: Antiproliferative activity against human HT-29 cells assessed as reduction in cell viability by MTT assay; assay type: functional, cell-based
MGC-803 = test: Antiproliferative activity against human MGC803 cells; assay type: functional, cell-based
[7] = biological target: Telomerase reverse transcriptase (Homo sapiens, UniProt O14746); test: Inhibition of telomerase (unknown origin)
Sequence of Telomerase reverse transcriptase (O14746 whole entry): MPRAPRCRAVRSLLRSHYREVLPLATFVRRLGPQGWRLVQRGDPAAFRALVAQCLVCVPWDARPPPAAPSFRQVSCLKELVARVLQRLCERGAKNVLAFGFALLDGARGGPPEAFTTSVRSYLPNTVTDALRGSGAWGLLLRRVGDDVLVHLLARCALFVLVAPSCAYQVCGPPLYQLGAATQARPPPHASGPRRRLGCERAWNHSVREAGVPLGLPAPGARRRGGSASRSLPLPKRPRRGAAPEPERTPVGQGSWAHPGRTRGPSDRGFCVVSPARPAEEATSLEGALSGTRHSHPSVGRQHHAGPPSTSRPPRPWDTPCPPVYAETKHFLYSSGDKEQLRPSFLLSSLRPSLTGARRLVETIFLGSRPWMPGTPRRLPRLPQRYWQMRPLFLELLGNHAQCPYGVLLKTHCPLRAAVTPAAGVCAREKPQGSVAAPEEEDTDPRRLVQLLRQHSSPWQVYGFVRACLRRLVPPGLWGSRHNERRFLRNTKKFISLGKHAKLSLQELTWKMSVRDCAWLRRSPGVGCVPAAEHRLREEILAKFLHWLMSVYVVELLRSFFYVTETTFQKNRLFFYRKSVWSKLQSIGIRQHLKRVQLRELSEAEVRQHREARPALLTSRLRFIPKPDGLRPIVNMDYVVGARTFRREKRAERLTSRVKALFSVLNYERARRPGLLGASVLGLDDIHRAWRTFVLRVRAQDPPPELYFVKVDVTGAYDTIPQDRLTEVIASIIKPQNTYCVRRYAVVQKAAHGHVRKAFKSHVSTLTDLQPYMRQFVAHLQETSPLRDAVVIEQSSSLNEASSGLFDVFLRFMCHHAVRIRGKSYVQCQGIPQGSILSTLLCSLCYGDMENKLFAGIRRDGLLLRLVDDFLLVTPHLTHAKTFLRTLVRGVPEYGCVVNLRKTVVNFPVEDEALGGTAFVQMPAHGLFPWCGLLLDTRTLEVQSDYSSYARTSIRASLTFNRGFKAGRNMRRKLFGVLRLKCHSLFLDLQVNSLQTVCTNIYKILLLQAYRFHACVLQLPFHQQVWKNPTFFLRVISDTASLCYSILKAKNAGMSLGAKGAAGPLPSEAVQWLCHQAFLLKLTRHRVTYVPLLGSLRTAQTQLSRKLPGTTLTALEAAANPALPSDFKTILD

Sequence of Epidermal growth factor receptor (P00533 whole entry): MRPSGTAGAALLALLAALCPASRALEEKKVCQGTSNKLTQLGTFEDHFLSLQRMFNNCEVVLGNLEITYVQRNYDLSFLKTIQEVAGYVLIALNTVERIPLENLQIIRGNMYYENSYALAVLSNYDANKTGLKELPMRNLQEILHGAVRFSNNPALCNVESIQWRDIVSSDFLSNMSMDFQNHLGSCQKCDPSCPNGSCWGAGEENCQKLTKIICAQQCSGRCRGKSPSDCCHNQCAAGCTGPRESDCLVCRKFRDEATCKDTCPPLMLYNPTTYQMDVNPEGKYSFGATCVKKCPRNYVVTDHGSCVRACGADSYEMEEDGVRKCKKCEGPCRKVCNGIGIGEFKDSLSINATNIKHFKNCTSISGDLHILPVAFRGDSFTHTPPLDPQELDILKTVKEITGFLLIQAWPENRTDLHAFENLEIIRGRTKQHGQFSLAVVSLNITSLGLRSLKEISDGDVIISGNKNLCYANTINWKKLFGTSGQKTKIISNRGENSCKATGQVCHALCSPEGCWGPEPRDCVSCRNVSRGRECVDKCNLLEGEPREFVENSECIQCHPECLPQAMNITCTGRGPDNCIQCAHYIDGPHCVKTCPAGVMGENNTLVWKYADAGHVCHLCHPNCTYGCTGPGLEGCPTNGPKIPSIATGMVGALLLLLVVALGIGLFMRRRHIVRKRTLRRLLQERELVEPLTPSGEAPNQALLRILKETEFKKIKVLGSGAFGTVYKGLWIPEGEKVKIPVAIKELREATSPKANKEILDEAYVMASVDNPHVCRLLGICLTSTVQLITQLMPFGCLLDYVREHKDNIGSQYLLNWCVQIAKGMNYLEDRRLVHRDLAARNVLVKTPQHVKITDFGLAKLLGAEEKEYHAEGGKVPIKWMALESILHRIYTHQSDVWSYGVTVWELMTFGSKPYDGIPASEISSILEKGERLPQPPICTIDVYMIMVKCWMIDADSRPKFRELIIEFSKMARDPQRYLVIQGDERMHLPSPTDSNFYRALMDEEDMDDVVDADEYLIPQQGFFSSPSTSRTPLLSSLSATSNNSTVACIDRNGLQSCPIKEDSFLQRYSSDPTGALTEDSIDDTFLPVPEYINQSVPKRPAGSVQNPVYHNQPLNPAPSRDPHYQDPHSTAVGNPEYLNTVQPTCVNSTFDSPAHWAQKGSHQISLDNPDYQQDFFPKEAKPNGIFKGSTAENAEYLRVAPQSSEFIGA
Sequence of Vascular endothelial growth factor receptor 2 (P35968 whole entry): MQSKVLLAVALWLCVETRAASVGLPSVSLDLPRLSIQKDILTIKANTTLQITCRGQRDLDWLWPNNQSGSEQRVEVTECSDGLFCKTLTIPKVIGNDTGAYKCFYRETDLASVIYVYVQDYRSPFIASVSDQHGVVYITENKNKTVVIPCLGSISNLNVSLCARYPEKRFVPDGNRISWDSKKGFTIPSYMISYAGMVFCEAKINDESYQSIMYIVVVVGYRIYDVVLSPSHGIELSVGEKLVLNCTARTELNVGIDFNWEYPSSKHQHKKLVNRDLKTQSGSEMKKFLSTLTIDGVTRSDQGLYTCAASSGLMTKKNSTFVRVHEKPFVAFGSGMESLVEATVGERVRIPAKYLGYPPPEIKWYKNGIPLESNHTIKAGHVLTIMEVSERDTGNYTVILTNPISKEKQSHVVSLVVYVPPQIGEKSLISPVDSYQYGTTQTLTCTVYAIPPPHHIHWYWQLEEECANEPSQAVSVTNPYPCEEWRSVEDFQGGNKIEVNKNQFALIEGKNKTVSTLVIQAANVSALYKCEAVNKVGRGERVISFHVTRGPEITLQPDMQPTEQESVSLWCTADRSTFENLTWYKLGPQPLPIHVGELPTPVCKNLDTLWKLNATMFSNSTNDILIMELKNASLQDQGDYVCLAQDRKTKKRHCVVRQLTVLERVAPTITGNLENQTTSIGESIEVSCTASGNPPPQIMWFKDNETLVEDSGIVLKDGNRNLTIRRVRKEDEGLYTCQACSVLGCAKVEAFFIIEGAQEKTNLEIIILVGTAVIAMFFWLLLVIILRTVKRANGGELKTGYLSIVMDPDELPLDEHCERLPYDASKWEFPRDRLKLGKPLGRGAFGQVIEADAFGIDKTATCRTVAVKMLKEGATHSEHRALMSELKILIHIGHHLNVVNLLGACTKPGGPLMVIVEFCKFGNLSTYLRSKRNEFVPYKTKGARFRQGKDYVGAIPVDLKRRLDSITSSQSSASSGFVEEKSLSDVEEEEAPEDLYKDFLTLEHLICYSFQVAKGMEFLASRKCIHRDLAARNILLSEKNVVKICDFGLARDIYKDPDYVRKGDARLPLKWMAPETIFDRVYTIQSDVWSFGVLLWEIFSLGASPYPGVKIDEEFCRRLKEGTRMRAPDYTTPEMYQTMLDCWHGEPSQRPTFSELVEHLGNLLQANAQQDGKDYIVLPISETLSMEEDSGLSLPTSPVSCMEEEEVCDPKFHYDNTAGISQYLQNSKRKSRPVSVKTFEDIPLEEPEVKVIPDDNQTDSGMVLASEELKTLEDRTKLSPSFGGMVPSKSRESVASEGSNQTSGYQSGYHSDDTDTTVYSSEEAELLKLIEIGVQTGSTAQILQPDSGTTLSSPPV
Sequence of Beta-secretase 1 (P56817 whole entry): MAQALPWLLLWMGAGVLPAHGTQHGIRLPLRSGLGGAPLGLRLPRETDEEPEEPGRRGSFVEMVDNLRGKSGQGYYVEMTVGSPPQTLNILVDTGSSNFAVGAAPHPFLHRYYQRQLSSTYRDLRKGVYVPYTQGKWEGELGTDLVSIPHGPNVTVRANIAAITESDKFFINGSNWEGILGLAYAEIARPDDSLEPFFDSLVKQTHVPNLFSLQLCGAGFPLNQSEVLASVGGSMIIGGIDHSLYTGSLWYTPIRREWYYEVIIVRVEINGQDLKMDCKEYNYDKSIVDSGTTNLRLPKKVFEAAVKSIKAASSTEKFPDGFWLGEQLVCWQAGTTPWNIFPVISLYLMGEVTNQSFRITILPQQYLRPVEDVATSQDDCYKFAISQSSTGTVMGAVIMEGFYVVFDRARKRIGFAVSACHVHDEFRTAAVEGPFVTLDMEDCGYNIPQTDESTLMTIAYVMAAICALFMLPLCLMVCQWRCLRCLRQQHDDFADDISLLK

With `COc1cccc(/C=C/C(=O)Nc2cc(OC)c(OC)c(OC)c2)c1` the IC50 (U-937) was 8000 nM.
Compound `O=C(O)C1CCN(C(=O)/C=C/c2ccc(Sc3ccc4c(c3)OCCO4)c(C(F)(F)F)c2C(F)(F)F)CC1` has an IC50 [1] of 0.5 nM.
For `O=C(/C=C/c1ccccc1)NCCc1cc2cc(O)ccc2[nH]1`, the IC50 (Beta-secretase 1) was 86700 nM.
For `COc1ccccc1Sc1ccc(/C=C/C(=O)N2CCC(C(=O)O)CC2)c(C(F)(F)F)c1C(F)(F)F`, the IC50 [1] was 0.1 nM.
Work on `COc1ccc(/C=C/C(=O)Nc2cc3c(Nc4ccc(F)c(Cl)c4)ncnc3cc2O[C@@H]2CCOC2)cc1` yielded an IC50 [2] of 9 nM and an IC50 [3] of 3.6 nM.
Compound `O=C(/C=C/c1ccc(O)c(O)c1)NCCc1c[nH]c2ccc(O)cc12` [N-CAFFEOYLSEROTONIN] has an EC50 [4] of 8100 nM.
Compound `CC(C)(C)NC(=O)/C=C/c1ccccc1` [N-TERT-BUTYLCINNAMAMIDE] has an IC50 (MCF7) of 13400 nM.
In the case of `C=CCOc1cc(/C=C/C(=O)Nc2cc(OC)c(OC)c(OC)c2)ccc1N/C=C\C(=O)c1ccc(OC)c([N+](=O)[O-])c1`, the IC50 (DU-145) is reported as 8910 nM.
Work on `COc1cc(/C=C/C(=O)Nc2cc3c(Nc4ccc(F)c(Cl)c4)ncnc3cc2O[C@@H]2CCOC2)cc(OC)c1OC` yielded an IC50 [2] of 9 nM and an IC50 [3] of 3.6 nM.
Work on `COc1ccc(/C=C/C(=O)N2C[C@H]3C[C@@]34C2=CC(=O)c2[nH]c(C)c(Cl)c24)cc1` yielded an IC50 (HeLa S3) of 0.029 nM.
Work on `CCCCCCCCCCCCCCCCNC(=O)/C=C/c1ccc(-c2[nH]c(-c3ccc(C4=NOC(C(=O)O)C4)cc3)nc2-c2ccc(/C=C/C(=O)O)cc2)cc1` (configuration not stated) yielded an IC50 (P-selectin) of 300 nM.
For `C=CCOc1cc(/C=C/C(=O)Nc2cc(OC)c(OC)c(OC)c2)ccc1N/C=C\C(=O)c1cc(N)c(OC)c(OC)c1`, the IC50 (DU-145) was 7480 nM.
In the case of `CC(=O)N1CCN(C(=O)/C=C/c2ccc(Sc3ccc(Cl)cc3Cl)c([N+](=O)[O-])c2)CC1`, the IC50 [5] is reported as 90 nM.
`CCCCCCCCCCCCNC(=O)/C=C/c1ccccc1` [N-DODECYLCINNAMAMIDE] showed an IC50 (MCF7) of 11100 nM.
With `CNC(=O)c1ccc(/C=C/C(=O)NCC(=O)N(C)c2ccc(Cl)c(COc3cccc4ccc(C)nc34)c2Cl)cn1` the IC50 (B2 bradykinin receptor) was 0.46 nM.
`CC(=O)N1CCN(C(=O)/C=C/c2ccc(Sc3ccc4c(c3)OCCO4)c(Cl)c2)CC1` gave an IC50 [6] of 40 nM.
`COc1cc(/C=C/C(=O)NCCc2cc(OC)c(O)c(OC)c2)ccc1O` gave an IC50 (P388) of 4000 nM and an IC50 (HT-29) of 4000 nM.
In the case of `CCCc1n[nH]c(C(N)=O)c1NC(=O)/C=C/c1ccco1`, the IC50 (MGC-803) is reported as 3010 nM and the IC50 [7] is reported as 1020 nM.

From ChEMBL document CHEMBL4359862, “Cinnamamide: An insight into the pharmacological advances and structure-activity relationships” (Eur J Med Chem, 2019)
